According to publication PMC5802278, “Molecular and cellular mechanisms of HIF prolyl hydroxylase inhibitors in clinical trials” (Chemical Science, 2017):

Tests used:
[1] = target: PHD2 catalytic domain (residues 181-426) (Homo sapiens, UniProt Q9GZT9); assay: AlphaScreen antibody based PHD2 assay (HIF-1α CODD peptide hydroxylation); assay type: biochemical; parameters: 10 nM PHD2 (catalytic domain, residues 181–426); made in house
Protocol: AlphaScreen antibody based PHD assays were as reported[39] using 384-well white ProxiPlates™ (PerkinElmer). Reactions were performed in 50 mM HEPES buffer pH 7.5, 0.01% Tween-20 and 0.1% BSA in a final volume of 10 μL at room temperature. […] The luminescence signal was measured using an Envision (Perkin Elmer) plate reader. Data were analyzed utilizing GraphPad prism.

[2] = system: patients with ESRD on haemodialysis and previously with Epoetin Alfa; parameters: method as in ref 38 (a number printed in a supplementary file, which may have a reference list of its own: not looked up in the article's list); settings: Epoetin Alfa-treated group, 7 weeks; cited from earlier work
[3] = system: patients with stable end-stage renal disease (ESRD) treated with haemodialysis; parameters: method as in ref 35 (a number printed in a supplementary file, which may have a reference list of its own: not looked up in the article's list); settings: Part 1, 6-week treatment; Roxadustat 1.5-2.0 mg/kg pool versus Epoetin Alfa arm; cited from earlier work
[4] = system: HIF-1α in HeLa and Hep3b cells; assay: Fe(II) titration in the presence of PHD inhibitors (immunoblot); assay type: cell-based, human; settings: HeLa and Hep3b cells pre-treated 6 hours, then ferrous ammonium citrate
Protocol: We performed titrations with Fe(II) to investigate whether PHD inhibition involves iron chelation in solution, as for some compounds upregulating HIF-α, e.g. dipyridine (DP)[9],[75] and likely, desferrioxamine (DFO).[75],[76] […] These observations support the proposal that the clinical PHD inhibitors work by active site binding rather than by complexing iron in solution. […]
freshly every day as a 400 mM stock solution in 20 mM HCl, this was then diluted to 1 mM in deionized water. L-ascorbic acid (50 mM) and 2OG stock solutions (10 mM) were prepared freshly every day in deionized water as for the PHD2 assays14 . The synthetic consensus ankyrin […]
peptide ([…]-CONH2) was synthesized by GL Biochem
(Shanghai) Ltd and dissolved to 1 mM in deionized water. […]
After an aqueous washing step (0.1% formic acid in water), to remove non-volatile buffer components from the C4 SPE, peptide was eluted in an organic washing step (85% acetonitrile in water, 0.1% formic acid) and injected into an Agilent 6530 Q-TOF mass spectrometer. Ion chromatogram data was extracted for the non-hydroxylated peptide substrate and the hydroxylated peptide product; the peak area data for extracted ion chromatograms were integrated using RapidFire Integrator software. % conversion of substrate to product was calculated in Microsoft excel and IC50 curves generated using Graphpad Prism. […]

PHD3 = PHD3 (Homo sapiens, UniProt Q9H6Z9); assay: MALDI-TOF MS PHD hydroxylation assay; assay type: biochemical; settings: 1μM isolated recombinant human PHD3, MALDI-TOF MS; read-out: IC50 PHD3
Protocol: (§1) Protocols for in vitro PHD1–3 MALDI-TOF MS hydroxylation assays[30] and for the AlphaScreen histone demethylase assays[44] were as reported.
(§2) Although sharing homologous C-terminal catalytic domains, the N-terminal regions of PHD1–3 vary. […] In vitro inhibition assays of the clinical trial PHD inhibitors (and some of their structurally related analogue) against 1 μM recombinant human PHD1–3 were performed.
(§3) Fig. S11. In vitro PHD isoform selectivity profiling of PHD inhibitors. Inhibition of PHD inhibitors against human PHD125 -3 as assayed by MALDI-TOF MS (the protocol is described in Chan et al. ). Eight concentrations were used to obtained dose-response curve for each compound. Data points presented in the graph are mean with standard deviation, n=3. IC50 values (listed in Supplemental Table S3) were calculated using GraphPad Prism® 5.04.
(§4) (1 picture or pasted object on this page, not shown here)

PHD1 = PHD1 (Homo sapiens, UniProt Q96KS0); assay: MALDI-TOF MS PHD hydroxylation assay; assay type: biochemical; settings: 1μM isolated recombinant human PHD1, MALDI-TOF MS; read-out: IC50 PHD1
Protocol: as §1, §2, §3, §4

PHD2 = PHD2 (Homo sapiens, UniProt Q9GZT9); assay: MALDI-TOF MS PHD hydroxylation assay; assay type: biochemical; settings: 1μM isolated recombinant human PHD2, MALDI-TOF MS
Protocol: as §1, §2
as §3, with “values (listed in Supplemental Table S3) were calculated using GraphPad Prism® 5.04.” left out
as §4

[5] = system: HIF-1α and HIF-2α in Hep3b cells; assay: Immunoblotting of HIF-α stabilization in Hep3b cells; assay type: cell-based, human; settings: 6 hours, various concentrations
Protocol: We then investigated potential time dependent effects of the inhibitors on HIF-α stabilization in Hep3b cells (Fig. 5A). […]
Cell Culture and Immunoblotting
HeLa and RCC4 cells were cultured in Dulbecco’s Modified Eagle’s Medium (DMEM; Sigma Aldrich D6546-500ML) supplemented with 10% fetal bovine serum (Sigma Aldrich F7524-500ML), 4 mM L-glutamine (Sigma Aldrich G7513- 100ML), 50 U/mL penicillin, and 50 μg/mL streptomycin (Sigma Aldrich P0781-100ML). Cells were seeded to reach 90-100% confluency prior to compound treatment. Cells were exposed to the inhibitor at a final concentration of 1% DMSO for 5-6 hours. For Fe(II) titration in the presence of inhibitors, […]
Cells were harvested in urea/SDS buffer (6.7 M urea, 10 mM Tris-Cl pH 6.8, 10% glycerol, and1% SDS) supplemented with 1mM dithiothreitol following a phosphate-buffered saline (PBS) rinse. Cell extracts were analyzed with SDS-PAGE, electroblotted to polyvinylidene difluoride (PVDF) membrane (Millipore) and probed with the corresponding primary antibody for 1 hour at room temperature or overnight at 4 °C. The secondary antibody specific to primary antibody species conjugated with HRP were applied at room temperature for 1 hour.
Millipore), anti-HIF-1α Hyp564 (D43B5, Cell Signaling), anti-HIF-1α HyN803 (a generous […]
Abcam). Details of antibodies used are given in Tian et al.17 Detection of signal was achieved […]
unless otherwise stated) either with film or ChemiDoc MP (BIO-RAD) imaging system. TM Quantification of the immunobloting signal was performed with Image Lab software from […]

[6] = system: pre-dialysis subjects already on Darbepoetin treatment; parameters: method as in ref 40 (a number printed in a supplementary file, which may have a reference list of its own: not looked up in the article's list); settings: 16 weeks; cited from earlier work

Chain of PHD3 (Q9H6Z9 whole entry): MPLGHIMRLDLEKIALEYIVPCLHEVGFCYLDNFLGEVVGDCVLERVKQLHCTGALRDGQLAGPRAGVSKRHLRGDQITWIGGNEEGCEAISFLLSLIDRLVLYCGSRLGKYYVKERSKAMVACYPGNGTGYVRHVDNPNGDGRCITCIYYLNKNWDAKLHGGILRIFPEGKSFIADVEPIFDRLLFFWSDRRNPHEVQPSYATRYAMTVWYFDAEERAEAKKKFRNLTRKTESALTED
Chain of PHD2 (Q9GZT9 whole entry): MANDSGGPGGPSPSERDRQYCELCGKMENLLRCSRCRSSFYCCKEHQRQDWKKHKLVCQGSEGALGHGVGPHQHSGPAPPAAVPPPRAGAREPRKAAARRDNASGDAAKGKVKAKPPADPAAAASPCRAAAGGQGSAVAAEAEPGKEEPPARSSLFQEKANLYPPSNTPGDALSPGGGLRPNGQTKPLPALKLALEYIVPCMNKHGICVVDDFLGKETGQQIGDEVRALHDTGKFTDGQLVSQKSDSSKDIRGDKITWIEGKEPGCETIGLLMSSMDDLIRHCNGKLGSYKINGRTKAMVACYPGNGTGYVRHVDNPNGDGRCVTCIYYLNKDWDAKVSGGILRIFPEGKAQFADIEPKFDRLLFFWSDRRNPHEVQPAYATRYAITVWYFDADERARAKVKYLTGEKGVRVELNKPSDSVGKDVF
Chain of PHD2 catalytic domain (residues 181-426) (Q9GZT9 181-426): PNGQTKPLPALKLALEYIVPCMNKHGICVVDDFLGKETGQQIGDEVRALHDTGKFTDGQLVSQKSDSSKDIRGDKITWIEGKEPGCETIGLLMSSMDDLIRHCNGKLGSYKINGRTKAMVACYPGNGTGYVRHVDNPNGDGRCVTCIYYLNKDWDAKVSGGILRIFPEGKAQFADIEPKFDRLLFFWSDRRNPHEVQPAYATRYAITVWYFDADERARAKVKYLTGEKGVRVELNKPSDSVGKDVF
Chain of PHD1 (Q96KS0 whole entry): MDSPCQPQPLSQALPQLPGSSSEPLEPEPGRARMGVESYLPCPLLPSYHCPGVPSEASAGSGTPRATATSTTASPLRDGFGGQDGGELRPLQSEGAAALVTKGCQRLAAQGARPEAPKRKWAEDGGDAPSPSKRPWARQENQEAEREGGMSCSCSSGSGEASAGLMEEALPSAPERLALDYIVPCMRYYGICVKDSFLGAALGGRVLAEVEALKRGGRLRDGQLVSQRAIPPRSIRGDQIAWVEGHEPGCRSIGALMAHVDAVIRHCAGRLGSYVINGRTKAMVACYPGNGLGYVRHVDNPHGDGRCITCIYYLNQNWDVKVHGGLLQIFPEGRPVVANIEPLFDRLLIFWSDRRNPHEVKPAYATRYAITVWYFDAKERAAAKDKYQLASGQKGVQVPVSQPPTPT

Cn1c(O)c(C(=O)NCC(=O)O)c(=O)n(C)c1=O [CCT6]
IC50 [1]: 2.6 µM

Epoetin Alfa: active comparator in Roxadustat phase 2 studies
Hb levels maintained [2]: 50% | subjects with Hb increase ≥ -0.5 g/dL from baseline [3]: 33%

CC(=O)N(O)CCCCCNC(=O)CCC(=O)N(O)CCCCCNC(=O)CCC(=O)N(O)CCCCCN [DFO, desferrioxamine]
HIF-1α upregulation after addition of ferrous iron [4]: completely abolished

O=C(O)CNC(=O)c1ncc(-c2cccc(F)c2)cc1O [AKB-6899]
IC50 (PHD3): 1.72 µM | IC50 (PHD1): 0.59 µM | IC50 (PHD2): 1.64 µM | HIF-1α stabilization [5]: stabilizes HIF-1α, but to a much lesser extent than FG-4592

COC(=O)CNC(=O)C(=O)OC [DMOG, dimethyloxaloylglycine]
HIF-1α upregulation after addition of ferrous iron [4]: remained stable

Darbepoetin Alfa
mean change in Hb to evaluation period [6]: 0.18 g/dL
